Results published in patent US12152024B2, “Pesticidally active heterocyclic derivatives with sulphur and hydroxylamine substituents” (SYNGENTA PARTICIPATIONS AG, priority 2016, dated 2024).

Columns and labels:
Type in all cases: in vivo
[1] = tested on: Diabrotica balteata (corn root worm); assay: Activity against Diabrotica balteata (corn root worm), maize sprouts sprayed; conditions: for percent effect (mortality or growth inhibition) at 200 ppm: 96 h, application rate 200 ppm, L2 larvae, 4 days after infestation, read-out: effect in at least one of the two categories (mortality or growth inhibition)
Method: Maize sprouts placed onto an agar layer in 24-well microtiter plates were treated with aqueous test solutions prepared from 10′000 ppm DMSO stock solutions by spraying. After drying, the plates were infested with L2 larvae (6 to 10 per well). The samples were assessed for mortality and growth inhibition in comparison to untreated samples 4 days after infestation.

[2] = tested on: Myzus persicae (Green Peach Aphid); assay: Activity against Myzus persicae (green peach aphid): feeding/contact activity; conditions: for mortality at 200 ppm: Myzus persicae, 144 h, application rate 200 ppm, feeding/contact, mixed ages, 6 days after infestation
Method: Sunflower leaf discs were placed onto agar in a 24-well microtiter plate and sprayed with aqueous test solutions prepared from 10′000 ppm DMSO stock solutions. After drying, the leaf discs were infested with an aphid population of mixed ages. The samples were assessed for mortality 6 days after infestation.

[3] = tested on: Plutella xylostella (Diamond Back Moth); assay: Activity against Plutella xylostella (diamond back moth), artificial diet; conditions: for percent effect (mortality or growth inhibition) at 200 ppm: 120 h, application rate 200 ppm, L2 larvae, 5 days after infestation, read-out: effect in at least one of the two categories (mortality or growth inhibition)
Method: 24-well microtiter plates with artificial diet were treated with aqueous test solutions prepared from 10′000 ppm DMSO stock solutions by pipetting. After drying, the plates were infested with L2 larvae (10 to 15 per well). The samples were assessed for mortality and growth inhibition in comparison to untreated samples 5 days after infestation.

[4] = tested on: Spodoptera littoralis (Egyptian Cotton Leaf Worm); assay: Activity against Spodoptera littoralis (Egyptian cotton leaf worm), cotton leaf discs sprayed; conditions: for percent control (mortality, anti-feedant effect or growth inhibition) at 200 ppm: foliar, 72 h, application rate 200 ppm, L1 larvae, 3 days after infestation, read-out: control (mortality, anti-feeding effect or growth inhibition)
Method: Cotton leaf discs were placed onto agar in 24-well microtiter plates and sprayed with aqueous test solutions prepared from 10′000 ppm DMSO stock solutions. After drying the leaf discs were infested with five L1 larvae. The samples were assessed for mortality, anti-feeding effect, and growth inhibition in comparison to untreated samples 3 days after infestation. Control of Spodoptera littoralis by a test sample is given when at least one of the categories mortality, anti-feedant effect, and growth inhibition is higher than the untreated sample.

[5] = tested on: Euschistus heros (Neotropical Brown Stink Bug); assay: Activity against Euschistus heros (neotropical brown stink bug), soybean leaves sprayed; conditions: 120 h, application rate 200 ppm, N2 nymphs, 5 days after infestation, read-out: effect in at least one of the two categories (mortality or growth inhibition)
Method: Soybean leaves on agar in 24-well microtiter plates were sprayed with aqueous test solutions prepared from 10′000 ppm DMSO stock solutions. After drying the leaves were infested with N2 nymphs. The samples were assessed for mortality and growth inhibition in comparison to untreated samples 5 days after infestation.

[6] = tested on: Myzus persicae (Green Peach Aphid); assay: Activity against Myzus persicae (green peach aphid): systemic activity; conditions: for mortality at 24 ppm: Myzus persicae, 144 h, test rate 24 ppm, systemic, pea seedling roots in test solution, 6 days
Method: Roots of pea seedlings infested with an aphid population of mixed ages were placed directly into aqueous test solutions prepared from 10′000 DMSO stock solutions. The samples were assessed for mortality 6 days after placing seedlings into test solutions.

[7] = tested on: Bemisia tabaci (Cotton White Fly); assay: Activity against Bemisia tabaci (cotton white fly); conditions: 144 h, application rate 200 ppm, adult white flies, 6 days after incubation
Method: Cotton leaf discs were placed on agar in 24-well microtiter plates and sprayed with aqueous test solutions prepared from 10′000 ppm DMSO stock solutions. After drying the leaf discs were infested with adult white flies. The samples were checked for mortality 6 days after incubation.

For CCSc1cccnc1-c1nc2cc(C(F)(F)F)n(OC)c(=O)c2n1C [Compound A1, 2-(3-ethylsulfanyl-2-pyridyl)-5-methoxy-3-methyl-6-(trifluoromethyl) imidazo[4,5-c]pyridin-4-one], the percent effect (mortality or growth inhibition) at 200 ppm [1] was at least 80%, the mortality at 200 ppm [2] was at least 80% and the percent effect (mortality or growth inhibition) at 200 ppm [3] was at least 80%. It also gave a percent control (mortality, anti-feedant effect or growth inhibition) at 200 ppm [4] of at least 80%.
With CCS(=O)(=O)c1ccc(-n2ccnn2)nc1-c1nc2cc(C(F)(F)F)n(OC)c(=O)c2n1C [Compound A4, 2-[3-ethylsulfonyl-6-(triazol-1-yl)-2-pyridyl]-5-methoxy-3-methyl-6-(trifluoromethyl)imidazo[4,5-c]pyridin-4-one] the percent effect (mortality or growth inhibition) at 200 ppm [1] was at least 80%, the percent effect (mortality or growth inhibition) at 200 ppm [5] was at least 80% and the mortality at 200 ppm [2] was at least 80%. It also gave a mortality at 24 ppm [6] of at least 80%, a percent effect (mortality or growth inhibition) at 200 ppm [3] of at least 80% and a percent control (mortality, anti-feedant effect or growth inhibition) at 200 ppm [4] of at least 80%. For the same molecule, the mortality at 200 ppm [7] was at least 80%.
Molecule CCS(=O)(=O)c1ccc(-n2nccn2)nc1-c1nc2cc(C(F)(F)F)n(OC)c(=O)c2n1C [Compound A5, 2-[3-ethylsulfonyl-6-(triazol-2-yl)-2-pyridyl]-5-methoxy-3-methyl-6-(trifluoromethyl)imidazo[4,5-c]pyridin-4-one] has a percent effect (mortality or growth inhibition) at 200 ppm [1] of at least 80%, a percent effect (mortality or growth inhibition) at 200 ppm [5] of at least 80% and a mortality at 200 ppm [2] of at least 80%. For the same molecule, the mortality at 24 ppm [6] was at least 80%, the percent effect (mortality or growth inhibition) at 200 ppm [3] was at least 80% and the percent control (mortality, anti-feedant effect or growth inhibition) at 200 ppm [4] was at least 80%.
CCS(=O)(=O)c1cc(C(F)(F)F)cnc1-c1nc2cc(C(F)(F)F)n(OC)c(=O)c2n1C [Compound A6, 2-[3-ethylsulfonyl-5-(trifluoromethyl)-2-pyridyl]-5-methoxy-3-methyl-6-(trifluoromethyl)imidazo[4,5-c]pyridin-4-one] gave a percent effect (mortality or growth inhibition) at 200 ppm [1] of at least 80%, a percent effect (mortality or growth inhibition) at 200 ppm [5] of at least 80% and a mortality at 200 ppm [2] of at least 80%. The mortality at 24 ppm [6] was at least 80%, the percent effect (mortality or growth inhibition) at 200 ppm [3] was at least 80% and the percent control (mortality, anti-feedant effect or growth inhibition) at 200 ppm [4] was at least 80%.
CCS(=O)(=O)c1ccccc1-c1nc2cc(C(F)(F)F)n(OC)c(=O)c2n1C [Compound A7, 2-(2-ethylsulfonylphenyl)-5-methoxy-3-methyl-6-(trifluoromethyl)imidazo[4,5-c]pyridin-4-one] gave a percent effect (mortality or growth inhibition) at 200 ppm [1] of at least 80%, a percent effect (mortality or growth inhibition) at 200 ppm [5] of at least 80% and a mortality at 200 ppm [2] of at least 80%. For the same molecule, the mortality at 24 ppm [6] was at least 80%, the percent effect (mortality or growth inhibition) at 200 ppm [3] was at least 80% and the percent control (mortality, anti-feedant effect or growth inhibition) at 200 ppm [4] was at least 80%.
CCS(=O)(=O)c1ccc(N)nc1-c1nc2cc(C(F)(F)F)n(OC)c(=O)c2n1C [Compound A13, 2-(6-amino-3-ethylsulfonyl-2-pyridyl)-5-methoxy-3-methyl-6-(trifluoromethyl)imidazo[4,5-c]pyridin-4-one] gave a percent effect (mortality or growth inhibition) at 200 ppm [1] of at least 80%, a percent effect (mortality or growth inhibition) at 200 ppm [5] of at least 80% and a mortality at 200 ppm [2] of at least 80%. For the same molecule, the mortality at 24 ppm [6] was at least 80%, the percent effect (mortality or growth inhibition) at 200 ppm [3] was at least 80% and the percent control (mortality, anti-feedant effect or growth inhibition) at 200 ppm [4] was at least 80%. The mortality at 200 ppm [7] was at least 80%.
In the case of CCS(=O)(=O)c1cc(Cl)c(N)nc1-c1nc2cc(C(F)(F)F)n(OC)c(=O)c2n1C [Compound A14, 2-(6-amino-5-chloro-3-ethylsulfonyl-2-pyridyl)-5-methoxy-3-methyl-6-(trifluoromethyl)imidazo[4,5-c]pyridin-4-one], the percent effect (mortality or growth inhibition) at 200 ppm [1] is reported as at least 80%, the percent effect (mortality or growth inhibition) at 200 ppm [5] is reported as at least 80% and the mortality at 200 ppm [2] is reported as at least 80%. It also gave a mortality at 24 ppm [6] of at least 80%, a percent effect (mortality or growth inhibition) at 200 ppm [3] of at least 80% and a percent control (mortality, anti-feedant effect or growth inhibition) at 200 ppm [4] of at least 80%. It also gave a mortality at 200 ppm [7] of at least 80%.
With CCS(=O)(=O)c1cc(C(C)(C)C#N)ccc1-c1nc2cc(C(F)(F)F)n(OC)c(=O)c2n1C [Compound A15, 2-[3-ethylsulfonyl-4-[5-methoxy-3-methyl-4-oxo-6-(trifluoromethyl)imidazo[4,5-c]pyridin-2-yl]phenyl]-2-methyl-propanenitrile] the percent effect (mortality or growth inhibition) at 200 ppm [1] was at least 80%, the percent effect (mortality or growth inhibition) at 200 ppm [5] was at least 80% and the mortality at 200 ppm [2] was at least 80%. For the same molecule, the mortality at 24 ppm [6] was at least 80%, the percent effect (mortality or growth inhibition) at 200 ppm [3] was at least 80% and the mortality at 200 ppm [7] was at least 80%.
With CCS(=O)(=O)c1cc(Br)c(N)nc1-c1nc2cc(C(F)(F)F)n(OC)c(=O)c2n1C [Compound A16, 2-(6-amino-5-bromo-3-ethylsulfonyl-2-pyridyl)-5-methoxy-3-methyl-6-(trifluoromethyl)imidazo[4,5-c]pyridin-4-one] the percent effect (mortality or growth inhibition) at 200 ppm [1] was at least 80%, the percent effect (mortality or growth inhibition) at 200 ppm [5] was at least 80% and the mortality at 200 ppm [2] was at least 80%. For the same molecule, the percent effect (mortality or growth inhibition) at 200 ppm [3] was at least 80% and the percent control (mortality, anti-feedant effect or growth inhibition) at 200 ppm [4] was at least 80%.
Work on CCSc1cc(Br)cnc1-c1nc2cc(C(F)(F)F)n(OC)c(=O)c2n1C [Compound A19, 2-(5-bromo-3-ethylsulfanyl-2-pyridyl)-5-methoxy-3-methyl-6-(trifluoromethyl)imidazo[4,5-c]pyridin-4-one] yielded a percent effect (mortality or growth inhibition) at 200 ppm [1] of at least 80%, a percent effect (mortality or growth inhibition) at 200 ppm [5] of at least 80% and a mortality at 200 ppm [2] of at least 80%. For the same molecule, the percent effect (mortality or growth inhibition) at 200 ppm [3] was at least 80% and the percent control (mortality, anti-feedant effect or growth inhibition) at 200 ppm [4] was at least 80%.
Work on CCSc1cc(C(F)(F)F)cnc1-c1nc2cc(C(F)(F)F)n(OC)c(=O)c2n1C [Compound A21, 2-[3-ethylsulfanyl-5-(trifluoromethyl)-2-pyridyl]-5-methoxy-3-methyl-6-(trifluoromethyl)imidazo[4,5-c]pyridin-4-one] yielded a percent effect (mortality or growth inhibition) at 200 ppm [1] of at least 80%, a percent effect (mortality or growth inhibition) at 200 ppm [5] of at least 80% and a mortality at 200 ppm [2] of at least 80%. The percent effect (mortality or growth inhibition) at 200 ppm [3] was at least 80% and the percent control (mortality, anti-feedant effect or growth inhibition) at 200 ppm [4] was at least 80%.
For CCSc1ccccc1-c1nc2cc(C(F)(F)F)n(OC)c(=O)c2n1C [Compound A22, 2-(2-ethylsulfanylphenyl)-5-methoxy-3-methyl-6-(trifluoromethyl)imidazo[4,5-c]pyridin-4-one], the percent effect (mortality or growth inhibition) at 200 ppm [1] was at least 80%, the percent effect (mortality or growth inhibition) at 200 ppm [5] was at least 80% and the mortality at 200 ppm [2] was at least 80%. For the same molecule, the mortality at 24 ppm [6] was at least 80%, the percent effect (mortality or growth inhibition) at 200 ppm [3] was at least 80% and the percent control (mortality, anti-feedant effect or growth inhibition) at 200 ppm [4] was at least 80%.
Molecule CCSc1cc(C2(C#N)CC2)ccc1-c1nc2cc(C(F)(F)F)n(OC)c(=O)c2n1C [Compound A23, 1-[3-ethylsulfanyl-4-[5-methoxy-3-methyl-4-oxo-6-(trifluoromethyl)imidazo[4,5-c]pyridin-2-yl]phenyl]cyclopropanecarbonitrile] has a percent effect (mortality or growth inhibition) at 200 ppm [1] of at least 80%, a percent effect (mortality or growth inhibition) at 200 ppm [5] of at least 80% and a percent effect (mortality or growth inhibition) at 200 ppm [3] of at least 80%. The percent control (mortality, anti-feedant effect or growth inhibition) at 200 ppm [4] was at least 80%.
CCSc1cc(C(C)(C)C#N)cnc1-c1nc2cc(C(F)(F)F)n(OC)c(=O)c2n1C [Compound A24, 2-[5-ethylsulfanyl-6-[5-methoxy-3-methyl-4-oxo-6-(trifluoromethyl)imidazo[4,5-c]pyridin-2-yl]-3-pyridyl]-2-methyl-propanenitrile] was tested, and the percent effect (mortality or growth inhibition) at 200 ppm [1] was at least 80%, the percent effect (mortality or growth inhibition) at 200 ppm [5] was at least 80% and the percent effect (mortality or growth inhibition) at 200 ppm [3] was at least 80%.
With CCSc1cc(C(C)(C)C#N)ccc1-c1nc2cc(C(F)(F)F)n(OC)c(=O)c2n1C [Compound A25, 2-[3-ethylsulfanyl-4-[5-methoxy-3-methyl-4-oxo-6-(trifluoromethyl)imidazo[4,5-c]pyridin-2-yl]phenyl]-2-methyl-propanenitrile] the percent effect (mortality or growth inhibition) at 200 ppm [1] was at least 80% and the percent effect (mortality or growth inhibition) at 200 ppm [5] was at least 80%.
In the case of CCS(=O)(=O)c1cccnc1-c1nc2cc(C(F)(F)F)n(OC)c(=O)c2n1C [drawing 144, reference compound], the “Mortality (%)” value ([1]; concentration 50 ppm) is reported as 0%, the “Mortality (%)” value ([2]; Myzus persicae (feeding/contact), concentration 50 ppm) is reported as 50% and the “Mortality (%)” value ([6]; Myzus persicae (systemic), concentration 1.5 ppm) is reported as 0%. For the same molecule, the “Mortality (%)” value ([3]; concentration 12.5 ppm) was 0% and the “Mortality (%)” value ([4]; concentration 12.5 ppm) was 0%.
